Data published in ChEMBL document CHEMBL3627608, “Crystal structures of human RIP2 kinase catalytic domain complexed with ATP-competitive inhibitors: Foundations for understanding inhibitor selectivity” (Bioorg Med Chem, 2015).

How the values were obtained:
[1] = molecular target: Epithelial discoidin domain-containing receptor 1 (Homo sapiens) (UniProt Q08345); experiment: Inhibition of DDR1 (unknown origin) at 10 uM after 120 mins P33 radiolabeled kinase activity assay
[2] = molecular target: Vascular endothelial growth factor receptor 1 (Homo sapiens) (UniProt P17948); experiment: Inhibition of FLT1 (unknown origin) at 10 uM after 120 mins P33 radiolabeled kinase activity assay
[3] = molecular target: T1, Mitogen-activated protein kinase kinase kinase kinase 3 (Homo sapiens) (UniProt Q8IVH8); experiment: Inhibition of GLK (unknown origin) at 10 uM after 120 mins P33 radiolabeled kinase activity assay
T1 sequence (whole entry): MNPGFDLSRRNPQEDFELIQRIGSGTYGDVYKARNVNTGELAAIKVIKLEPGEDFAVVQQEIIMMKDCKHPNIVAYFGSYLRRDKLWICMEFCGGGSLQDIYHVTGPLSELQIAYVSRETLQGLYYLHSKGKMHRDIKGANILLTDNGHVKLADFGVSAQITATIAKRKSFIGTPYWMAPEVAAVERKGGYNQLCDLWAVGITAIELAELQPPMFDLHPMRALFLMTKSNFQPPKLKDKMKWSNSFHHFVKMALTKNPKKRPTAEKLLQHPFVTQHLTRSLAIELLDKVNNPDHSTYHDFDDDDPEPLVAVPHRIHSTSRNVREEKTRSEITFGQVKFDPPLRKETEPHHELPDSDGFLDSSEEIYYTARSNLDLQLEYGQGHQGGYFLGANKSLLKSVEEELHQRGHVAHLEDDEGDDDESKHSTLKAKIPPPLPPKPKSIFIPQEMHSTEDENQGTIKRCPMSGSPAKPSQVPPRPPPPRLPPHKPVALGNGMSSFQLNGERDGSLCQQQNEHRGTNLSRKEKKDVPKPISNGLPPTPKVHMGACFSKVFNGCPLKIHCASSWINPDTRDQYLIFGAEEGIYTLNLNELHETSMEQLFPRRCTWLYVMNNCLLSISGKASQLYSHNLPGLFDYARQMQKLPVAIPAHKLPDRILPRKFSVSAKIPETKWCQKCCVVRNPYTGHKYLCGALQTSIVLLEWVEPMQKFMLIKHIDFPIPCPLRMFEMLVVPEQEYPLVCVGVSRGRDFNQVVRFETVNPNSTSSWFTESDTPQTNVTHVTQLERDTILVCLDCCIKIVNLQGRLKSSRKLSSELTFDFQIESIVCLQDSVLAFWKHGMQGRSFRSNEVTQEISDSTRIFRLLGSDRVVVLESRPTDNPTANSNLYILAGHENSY

[4] = molecular target: Serine/threonine-protein kinase PAK 6 (Homo sapiens) (UniProt Q9NQU5); experiment: Inhibition of PAK6 (unknown origin) at 10 uM after 120 mins P33 radiolabeled kinase activity assay
[5] = molecular target: Platelet-derived growth factor receptor alpha (Homo sapiens) (UniProt P16234); experiment: Inhibition of PDGFRalpha (unknown origin) at 10 uM after 120 mins P33 radiolabeled kinase activity assay
[6] = molecular target: Protein kinase C eta type (Homo sapiens) (UniProt P24723); experiment: Inhibition of PKCeta (unknown origin) at 10 uM after 120 mins P33 radiolabeled kinase activity assay
Homo sapiens = species: Homo sapiens; experiment: Inhibition of PKG1alpha (unknown origin) at 10 uM after 120 mins P33 radiolabeled kinase activity assay
[7] = molecular target: T2, MAP kinase-activated protein kinase 5 (Homo sapiens) (UniProt Q8IW41); experiment: Inhibition of MAPKAPK5 (unknown origin) at 10 uM after 120 mins P33 radiolabeled kinase activity assay
T2 sequence (whole entry): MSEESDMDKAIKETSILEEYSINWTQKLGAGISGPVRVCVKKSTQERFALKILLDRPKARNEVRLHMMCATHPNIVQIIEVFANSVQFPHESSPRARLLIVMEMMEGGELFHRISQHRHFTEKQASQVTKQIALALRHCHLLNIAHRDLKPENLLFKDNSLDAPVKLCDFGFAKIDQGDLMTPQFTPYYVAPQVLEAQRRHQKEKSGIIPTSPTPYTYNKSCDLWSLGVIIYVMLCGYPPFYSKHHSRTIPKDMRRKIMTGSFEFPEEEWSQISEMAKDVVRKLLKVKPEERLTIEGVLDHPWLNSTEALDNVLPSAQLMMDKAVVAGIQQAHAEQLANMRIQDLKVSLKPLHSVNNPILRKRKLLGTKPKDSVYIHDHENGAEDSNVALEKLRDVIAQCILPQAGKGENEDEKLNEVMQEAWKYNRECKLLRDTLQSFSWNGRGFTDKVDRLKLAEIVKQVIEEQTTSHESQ

[8] = molecular target: T3, Testis-specific serine/threonine-protein kinase 1 (Homo sapiens) (UniProt Q9BXA7); experiment: Inhibition of STK22D (unknown origin) at 10 uM after 120 mins P33 radiolabeled kinase activity assay
T3 sequence (whole entry): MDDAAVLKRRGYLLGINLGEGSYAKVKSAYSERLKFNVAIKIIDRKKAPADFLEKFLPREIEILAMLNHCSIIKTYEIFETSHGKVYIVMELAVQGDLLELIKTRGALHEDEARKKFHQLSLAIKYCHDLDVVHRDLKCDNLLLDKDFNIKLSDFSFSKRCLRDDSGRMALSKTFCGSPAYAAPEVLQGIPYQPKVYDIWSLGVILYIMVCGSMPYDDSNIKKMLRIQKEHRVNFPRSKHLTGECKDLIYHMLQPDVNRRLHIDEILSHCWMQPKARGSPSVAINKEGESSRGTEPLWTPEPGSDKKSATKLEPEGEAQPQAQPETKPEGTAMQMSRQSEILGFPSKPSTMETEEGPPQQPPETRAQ

[9] = molecular target: Serine/threonine-protein kinase 33 (Homo sapiens) (UniProt Q9BYT3); experiment: Inhibition of STK33 (unknown origin) at 10 uM after 120 mins P33 radiolabeled kinase activity assay
[10] = molecular target: TRAF2 and NCK-interacting protein kinase (Homo sapiens) (UniProt Q9UKE5); experiment: Inhibition of TNIK (unknown origin) at 10 uM after 120 mins P33 radiolabeled kinase activity assay
[11] = molecular target: Citron Rho-interacting kinase (Homo sapiens) (UniProt O14578); experiment: Inhibition of STK21 (unknown origin) at 10 uM after 120 mins P33 radiolabeled kinase activity assay
[12] = molecular target: Calcium/calmodulin-dependent protein kinase type 1B (Homo sapiens) (UniProt Q6P2M8); experiment: Inhibition of CAMK1beta (unknown origin) at 10 uM after 120 mins P33 radiolabeled kinase activity assay
[13] = molecular target: CDK1/Cyclin E (Homo sapiens) (UniProt P06493+P24864); experiment: Inhibition of CDK1/cyclin E (unknown origin) at 10 uM after 120 mins P33 radiolabeled kinase activity assay; type: protein-complex assay
[14] = molecular target: Cyclin-dependent kinase 2/cyclin A (Homo sapiens) (UniProt P24941+P20248+P78396); experiment: Inhibition of CDK2/cyclin A (unknown origin) at 10 uM after 120 mins P33 radiolabeled kinase activity assay; type: protein-complex assay
[15] = molecular target: Casein kinase I isoform gamma-2 (Homo sapiens) (UniProt P78368); experiment: Inhibition of CK1gamma2 (unknown origin) at 10 uM after 120 mins P33 radiolabeled kinase activity assay
Sequence of Casein kinase I isoform gamma-2 (Homo sapiens) (P78368 whole entry, looked up, canonical isoform): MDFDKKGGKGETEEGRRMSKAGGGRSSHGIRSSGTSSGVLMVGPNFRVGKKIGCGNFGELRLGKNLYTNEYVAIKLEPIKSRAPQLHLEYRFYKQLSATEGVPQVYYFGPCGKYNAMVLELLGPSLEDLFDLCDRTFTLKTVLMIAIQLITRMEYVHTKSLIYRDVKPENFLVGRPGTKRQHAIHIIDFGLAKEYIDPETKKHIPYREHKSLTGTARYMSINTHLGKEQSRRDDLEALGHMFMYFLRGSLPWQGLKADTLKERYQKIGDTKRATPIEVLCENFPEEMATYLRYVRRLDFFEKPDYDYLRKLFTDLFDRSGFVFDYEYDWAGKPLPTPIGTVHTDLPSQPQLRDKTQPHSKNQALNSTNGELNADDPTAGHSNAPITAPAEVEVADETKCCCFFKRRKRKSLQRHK

Sequence of Serine/threonine-protein kinase PAK 6 (Homo sapiens) (Q9NQU5 whole entry, looked up): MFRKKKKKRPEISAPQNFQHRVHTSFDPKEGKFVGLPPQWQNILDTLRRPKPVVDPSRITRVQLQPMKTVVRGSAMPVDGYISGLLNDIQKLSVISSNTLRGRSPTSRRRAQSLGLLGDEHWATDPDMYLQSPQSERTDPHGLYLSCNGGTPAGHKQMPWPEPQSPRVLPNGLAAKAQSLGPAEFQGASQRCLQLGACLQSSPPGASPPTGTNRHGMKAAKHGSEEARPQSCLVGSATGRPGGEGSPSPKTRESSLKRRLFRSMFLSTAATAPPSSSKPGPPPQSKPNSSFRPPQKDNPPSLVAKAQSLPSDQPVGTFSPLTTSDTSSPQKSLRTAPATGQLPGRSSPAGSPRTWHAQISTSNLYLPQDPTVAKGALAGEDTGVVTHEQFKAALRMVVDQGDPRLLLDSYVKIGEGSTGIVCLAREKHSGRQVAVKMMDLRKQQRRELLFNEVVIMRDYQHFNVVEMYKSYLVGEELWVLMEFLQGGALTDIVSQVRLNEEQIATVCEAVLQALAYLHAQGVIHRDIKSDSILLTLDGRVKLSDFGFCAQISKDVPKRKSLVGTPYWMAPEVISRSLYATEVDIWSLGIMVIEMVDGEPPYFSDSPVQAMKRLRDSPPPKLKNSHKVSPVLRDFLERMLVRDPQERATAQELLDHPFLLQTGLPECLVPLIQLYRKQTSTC
Sequence of TRAF2 and NCK-interacting protein kinase (Homo sapiens) (Q9UKE5 whole entry, looked up): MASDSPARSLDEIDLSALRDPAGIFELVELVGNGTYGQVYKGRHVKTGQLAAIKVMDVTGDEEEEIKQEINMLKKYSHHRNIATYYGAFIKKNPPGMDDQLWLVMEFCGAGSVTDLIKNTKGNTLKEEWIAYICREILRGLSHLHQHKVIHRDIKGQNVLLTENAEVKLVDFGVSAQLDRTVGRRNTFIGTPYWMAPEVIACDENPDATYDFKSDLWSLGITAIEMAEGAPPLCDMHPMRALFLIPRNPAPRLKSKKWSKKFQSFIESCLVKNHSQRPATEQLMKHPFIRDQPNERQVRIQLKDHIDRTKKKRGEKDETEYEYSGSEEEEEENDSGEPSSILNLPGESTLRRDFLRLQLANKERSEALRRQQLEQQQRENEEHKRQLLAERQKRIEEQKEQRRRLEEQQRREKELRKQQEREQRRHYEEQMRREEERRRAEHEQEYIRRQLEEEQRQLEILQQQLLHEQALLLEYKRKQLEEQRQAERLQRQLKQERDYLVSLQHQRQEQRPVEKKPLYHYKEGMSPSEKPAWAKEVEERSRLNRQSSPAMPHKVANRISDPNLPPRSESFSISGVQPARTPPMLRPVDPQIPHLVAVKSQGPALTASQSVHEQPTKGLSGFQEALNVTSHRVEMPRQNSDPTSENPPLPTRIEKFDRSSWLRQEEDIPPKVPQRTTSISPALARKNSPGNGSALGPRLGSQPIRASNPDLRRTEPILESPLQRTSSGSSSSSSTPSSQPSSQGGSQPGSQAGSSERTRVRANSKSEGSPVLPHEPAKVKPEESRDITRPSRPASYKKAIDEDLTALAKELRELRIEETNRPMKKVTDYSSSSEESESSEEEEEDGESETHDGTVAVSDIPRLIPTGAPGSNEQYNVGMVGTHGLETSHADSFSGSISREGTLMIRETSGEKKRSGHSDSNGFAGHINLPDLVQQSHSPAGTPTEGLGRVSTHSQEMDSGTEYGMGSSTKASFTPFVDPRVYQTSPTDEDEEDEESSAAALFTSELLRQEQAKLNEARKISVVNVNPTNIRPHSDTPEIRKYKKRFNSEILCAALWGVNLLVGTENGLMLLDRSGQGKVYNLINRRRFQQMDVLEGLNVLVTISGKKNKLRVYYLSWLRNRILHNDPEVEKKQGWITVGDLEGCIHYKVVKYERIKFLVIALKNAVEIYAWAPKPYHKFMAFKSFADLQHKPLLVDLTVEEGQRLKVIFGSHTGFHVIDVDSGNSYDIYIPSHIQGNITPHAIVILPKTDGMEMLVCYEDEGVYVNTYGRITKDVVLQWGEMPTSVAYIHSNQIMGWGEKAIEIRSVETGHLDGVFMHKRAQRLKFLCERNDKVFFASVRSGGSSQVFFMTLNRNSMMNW
Sequence of Epithelial discoidin domain-containing receptor 1 (Homo sapiens) (Q08345 whole entry, the tested form may be a part): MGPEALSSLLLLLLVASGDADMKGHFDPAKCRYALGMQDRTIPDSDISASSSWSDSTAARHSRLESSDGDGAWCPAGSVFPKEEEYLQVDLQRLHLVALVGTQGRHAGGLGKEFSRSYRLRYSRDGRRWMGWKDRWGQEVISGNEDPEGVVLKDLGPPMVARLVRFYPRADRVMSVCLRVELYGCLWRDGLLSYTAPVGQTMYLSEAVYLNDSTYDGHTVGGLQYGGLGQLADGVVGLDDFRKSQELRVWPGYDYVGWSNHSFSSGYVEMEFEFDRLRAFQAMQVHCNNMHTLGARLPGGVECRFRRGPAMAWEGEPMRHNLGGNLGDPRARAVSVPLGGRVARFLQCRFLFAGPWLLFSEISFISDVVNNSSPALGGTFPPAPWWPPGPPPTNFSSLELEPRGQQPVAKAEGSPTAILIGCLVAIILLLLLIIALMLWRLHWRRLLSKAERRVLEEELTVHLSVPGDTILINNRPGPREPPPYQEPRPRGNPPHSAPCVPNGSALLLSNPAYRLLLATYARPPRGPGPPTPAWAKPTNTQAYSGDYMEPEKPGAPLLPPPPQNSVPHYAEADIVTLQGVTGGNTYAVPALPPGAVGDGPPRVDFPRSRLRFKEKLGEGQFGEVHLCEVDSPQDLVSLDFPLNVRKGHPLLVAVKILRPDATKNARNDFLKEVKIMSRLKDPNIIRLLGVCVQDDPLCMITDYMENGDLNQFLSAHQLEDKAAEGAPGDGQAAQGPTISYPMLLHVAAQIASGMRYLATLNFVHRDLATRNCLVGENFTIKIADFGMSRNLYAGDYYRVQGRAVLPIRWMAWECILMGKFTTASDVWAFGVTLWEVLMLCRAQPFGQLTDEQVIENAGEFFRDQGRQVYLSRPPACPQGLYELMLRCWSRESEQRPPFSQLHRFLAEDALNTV
Sequence of CDK1/Cyclin E (Homo sapiens) (P06493 whole entry, looked up): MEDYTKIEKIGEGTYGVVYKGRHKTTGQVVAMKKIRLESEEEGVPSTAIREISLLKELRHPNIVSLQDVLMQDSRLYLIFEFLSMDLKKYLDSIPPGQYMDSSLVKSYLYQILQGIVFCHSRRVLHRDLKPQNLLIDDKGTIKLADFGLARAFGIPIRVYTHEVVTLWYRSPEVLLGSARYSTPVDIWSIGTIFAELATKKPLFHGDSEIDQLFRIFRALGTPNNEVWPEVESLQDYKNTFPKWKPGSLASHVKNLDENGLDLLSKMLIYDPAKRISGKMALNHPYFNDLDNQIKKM
Sequence of CDK1/Cyclin E (Homo sapiens) (P24864 whole entry, looked up): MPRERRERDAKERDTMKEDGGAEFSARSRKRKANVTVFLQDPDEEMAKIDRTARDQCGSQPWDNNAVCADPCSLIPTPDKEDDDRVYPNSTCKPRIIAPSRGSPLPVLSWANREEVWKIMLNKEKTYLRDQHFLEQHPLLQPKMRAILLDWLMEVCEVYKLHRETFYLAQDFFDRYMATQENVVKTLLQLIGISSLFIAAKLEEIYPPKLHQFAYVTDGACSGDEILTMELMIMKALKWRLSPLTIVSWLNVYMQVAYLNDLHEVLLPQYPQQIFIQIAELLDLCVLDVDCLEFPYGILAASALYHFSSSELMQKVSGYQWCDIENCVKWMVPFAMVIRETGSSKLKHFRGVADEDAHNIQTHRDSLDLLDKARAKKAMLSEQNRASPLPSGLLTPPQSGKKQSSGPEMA
Sequence of Serine/threonine-protein kinase 33 (Homo sapiens) (Q9BYT3 whole entry, looked up): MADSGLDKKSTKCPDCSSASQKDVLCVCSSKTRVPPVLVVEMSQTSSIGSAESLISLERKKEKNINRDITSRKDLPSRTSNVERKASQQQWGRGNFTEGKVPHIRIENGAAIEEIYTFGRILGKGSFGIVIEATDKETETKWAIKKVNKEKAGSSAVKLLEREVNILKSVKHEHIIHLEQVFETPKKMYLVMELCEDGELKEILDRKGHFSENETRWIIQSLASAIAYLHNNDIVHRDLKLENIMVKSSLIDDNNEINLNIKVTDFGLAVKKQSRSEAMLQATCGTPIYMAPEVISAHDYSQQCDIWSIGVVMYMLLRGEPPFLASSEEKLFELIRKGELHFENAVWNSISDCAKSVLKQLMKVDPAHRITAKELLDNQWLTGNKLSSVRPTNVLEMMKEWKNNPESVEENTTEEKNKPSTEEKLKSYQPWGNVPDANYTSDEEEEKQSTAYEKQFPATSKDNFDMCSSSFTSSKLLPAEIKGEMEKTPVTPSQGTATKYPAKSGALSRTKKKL
Sequence of Calcium/calmodulin-dependent protein kinase type 1B (Homo sapiens) (Q6P2M8 whole entry): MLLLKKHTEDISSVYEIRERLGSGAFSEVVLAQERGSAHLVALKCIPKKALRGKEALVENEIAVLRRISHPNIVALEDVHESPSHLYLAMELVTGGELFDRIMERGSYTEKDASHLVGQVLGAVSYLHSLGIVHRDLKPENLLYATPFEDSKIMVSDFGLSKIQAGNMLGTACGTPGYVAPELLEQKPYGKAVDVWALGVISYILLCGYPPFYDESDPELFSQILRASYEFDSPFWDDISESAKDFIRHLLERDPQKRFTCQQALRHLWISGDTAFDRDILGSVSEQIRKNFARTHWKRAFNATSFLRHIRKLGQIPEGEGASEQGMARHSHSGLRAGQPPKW

## CS(=O)(=O)c1cccc(Nc2nccc(-c3sc(N4CCOCC4)nc3-c3cccc(NS(=O)(=O)c4c(F)cccc4F)c3)n2)c1
[1]
  inhibition: 98.6%
[2]
  inhibition: 98%
[3]
  inhibition: 56.2%
[4]
  inhibition: 17.4%
[5]
  inhibition: 94.1%
[6]
  inhibition: -5.94%
Homo sapiens
  inhibition: 9.43%
[7]
  inhibition: 4.25%
[8]
  inhibition: 13.6%
[9]
  inhibition: 29.3%
[10]
  inhibition: 82.6%
[11]
  inhibition: -3.87%
[12]
  inhibition: 46.8%
[13]
  inhibition: 78.3%
[14]
  inhibition: 62.9%
[15]
  inhibition: 34.5%

## COCCNC(=O)c1ccc2c(c1)nc(-c1cnc(-c3ccc(Cl)cc3)[nH]1)n2CCOC
[1]
  inhibition: 66%
[2]
  inhibition: 0.33%
[3]
  inhibition: 4.53%
[4]
  inhibition: 3.33%
[5]
  inhibition: 17.2%
[6]
  inhibition: 0.75%
Homo sapiens
  inhibition: -4.79%
[7]
  inhibition: 5.26%
[8]
  inhibition: 7.17%
[9]
  inhibition: 10.6%
[10]
  inhibition: 48.4%
[11]
  inhibition: -5.27%
[12]
  inhibition: 2.47%
[13]
  inhibition: -2.74%
[14]
  inhibition: -6.73%
[15]
  inhibition: 11.4%

## CC(C)(C)c1cc(NC(=O)Nc2ccc(Oc3ccncc3)cc2)no1
[1]
  inhibition: 98.1%
[2]
  inhibition: 97.5%
[3]
  inhibition: 41.9%
[4]
  inhibition: 8.88%
[5]
  inhibition: 98.3%
[6]
  inhibition: -2.64%
Homo sapiens
  inhibition: 7.43%
[7]
  inhibition: -1.68%
[8]
  inhibition: 7.33%
[9]
  inhibition: 36.7%
[10]
  inhibition: 93.9%
[11]
  inhibition: -1.52%
[12]
  inhibition: 9.84%
[13]
  inhibition: 72.2%
[14]
  inhibition: 6.27%
[15]
  inhibition: 20.1%
